# Where two headings read alike, the source gives them in different places.
# Legend:
# Escherichia coli FabH = system: Escherichia coli FabH; design: method as in PMID 24561667; conditions: cited from earlier work
# G+ and G- bacteria = system: G+ and G- bacteria; design: method as in PMID 24561667; conditions: whole cell, cited from earlier work
# [1] = system: Candida krusei CCM 8271 (ATCC 6258); assay: Antifungal microdilution broth (EUCAST); conditions: for MIC: Pichia kudriavzevii, 24 h, read-out: MIC CK; for MIC CK: 24h incubation
# [2] = system: Staphylococcus aureus subsp. aureus CCM 4223 (ATCC 29213); assay: Antibacterial microdilution broth (EUCAST); assay type: cell-based; conditions: 24h incubation; for MIC: Staphylococcus aureus, read-out: MIC SA
# [3] = system: Acinetobacter baumannii DSM 30007 (ATCC 19606); assay: Antibacterial microdilution broth (EUCAST); assay type: cell-based; conditions: 24h incubation; for MIC: Acinetobacter baumannii, read-out: MIC AB
# [4] = system: Mycobacterium tuberculosis H37Ra ITM-M006710 (ATCC 9431); assay: Antimycobacterial MIC, microdilution broth / Alamar Blue (resazurin); assay type: cell-based; conditions: for MIC: Mycobacterium tuberculosis
# [5] = system: M. smegmatis DSM 43465 (ATCC 607); assay: Antimycobacterial MIC, microdilution broth / resazurin; assay type: cell-based; conditions: Mycolicibacterium smegmatis; resazurin after 48 h; read-out: MIC M. smegmatis
# [6] = system: Escherichia coli CCM 3954 (ATCC 25922); assay: Antibacterial microdilution broth (EUCAST); assay type: cell-based; conditions: 24h incubation; for MIC: Escherichia coli, read-out: MIC EC
# HepG2 cells = assay: HepG2 cytotoxicity screening (CellTiter 96); assay type: cell-based, human; conditions: for IC50: Homo sapiens, HepG2, 24 h, 24 h incubation, CellTiter 96, * above highest tested concentration, ** limited by insolubility in medium
# [7] = system: Candida tropicalis CCM 8264 (ATCC 750); assay: Antifungal microdilution broth (EUCAST); conditions: for MIC: Candida tropicalis, 24 h, read-out: MIC CT; for MIC CT: 24h incubation
# [8] = system: Trichophyton interdigitale CCM 8377 (ATCC 9533); assay: Antifungal microdilution broth (EUCAST); conditions: for MIC: Trichophyton interdigitale, 72 h, read-out: MIC TI; for MIC TI: 72h incubation
# [9] = system: M. aurum DSM 43999 (ATCC 23366); assay: Antimycobacterial MIC, microdilution broth / resazurin; assay type: cell-based; conditions: Mycolicibacterium aurum; resazurin after 72 h; read-out: MIC M. aurum
# [10] = system: bacterial MetAP (S. aureus, E. coli) vs hMetAP; design: method as in PMID 15664828; conditions: tested against S. aureus; cited from earlier work
# [11] = system: Aspergillus fumigatus ATCC 204305; assay: Antifungal microdilution broth (EUCAST); conditions: for MIC: Aspergillus fumigatus, ATCC204305, 24 h, read-out: MIC AF; for MIC AF: 24h incubation
# [12] = system: Lichtheimia corymbifera CCM 8077; assay: Antifungal microdilution broth (EUCAST); conditions: for MIC: Lichtheimia corymbifera, CCM8077, 24 h, read-out: MIC LC; for MIC LC: 24h incubation
# [13] = system: Pseudomonas aeruginosa CCM 3955 (ATCC 27853); assay: Antibacterial microdilution broth (EUCAST); assay type: cell-based; conditions: 72h incubation; for MIC: Pseudomonas aeruginosa, read-out: MIC PA
# [14] = system: Candida albicans CCM 8320 (ATCC 24433); assay: Antifungal microdilution broth (EUCAST); conditions: for MIC: Candida albicans, 24 h, read-out: MIC CA; for MIC CA: 24h incubation
# [15] = RP-UHPLC lipophilicity parameter log k’w; assay type: physicochemical; conditions: for log k’w: RP-UHPLC, acetonitrile/water, log k extrapolated to 0% acetonitrile; for logkw: experimental lipophilicity parameter
# Summary of the method: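 Retention was measured once per eluent composition: subtype I at 40/45/50% and subtype II at 20/30/40% acetonitrile in water, isocratic RP-UHPLC. log k values from these runs gave the lipophilicity index log k’w.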
# [16] = system: Aspergillus flavus CCM 8363; assay: Antifungal microdilution broth (EUCAST); conditions: for MIC: Aspergillus flavus, CCM8363, 24 h, read-out: MIC AFla; for MIC AFla: 24h incubation
# [17] = system: Staphylococcus epidermidis CCM 4418 (ATCC 12228); assay: Antibacterial microdilution broth (EUCAST); assay type: cell-based; conditions: 24h incubation; for MIC: Staphylococcus epidermidis, read-out: MIC SE
# [18] = system: Enterococcus faecalis CCM 4224 (ATCC 29212); assay: Antibacterial microdilution broth (EUCAST); assay type: cell-based; conditions: 24h incubation; for MIC: Enterococcus faecalis, read-out: MIC EF
# [19] = system: Candida parapsilosis CCM 8260 (ATCC 22019); assay: Antifungal microdilution broth (EUCAST); conditions: for MIC: Lodderomyces parapsilosis, 24 h, read-out: MIC CP; for MIC CP: 24h incubation
# [20] = system: Staphylococcus aureus subsp. aureus (MRSA) CCM 4750 (ATCC 43300); assay: Antibacterial microdilution broth (EUCAST); assay type: cell-based; conditions: 24h incubation; for MIC: Staphylococcus aureus, read-out: MIC MRSA
# [21] = system: M. avium DSM 44156 (ATCC 25291); assay: Antimycobacterial MIC, microdilution broth / resazurin; assay type: cell-based, Mycobacterium avium; conditions: Mycobacterium avium; resazurin after 96 h; read-out: MIC M. avium
# [22] = system: M. kansasii DSM 44162 (ATCC 12478); assay: as above; assay type: cell-based; conditions: Mycobacterium kansasii, read-out: MIC M. kansasii
# PC12 cells = system: PC12 cells; design: method as in PMID 19125579; conditions: acting as a PARP inhibitor; cited from earlier work
# [23] = system: Mycobacterium tuberculosis H37Ra ITM-M006710 (ATCC 9431); design: method as in PMID 30108959; conditions: cited from earlier work
# [24] = 120 h, Middlebrook 7H9, resazurin after 120 h, read-out: Mtb H37Ra MIC
structure (smiles),measurement,setting,value
O=C(Nc1nc(-c2ccc(Br)cc2)cs1)c1cccc(Cl)c1 [C],IC50,Escherichia coli FabH,9.3 µM
same,MIC,G+ and G- bacteria; recalculated to µM,7.9 to 31.8 µM
same,MIC,G+ and G- bacteria,3.13 to 12.5 µg/mL
O=C(Nc1nccs1)c1ccccn1 [Compound 1a],MIC,[1],500 µM
same,MIC,[2],> 500 µM
same,MIC,[3],> 500 µM
same,MIC,[4]; [24],31.2 µg/mL
same,MIC,[5],62.5 µg/mL
same,MIC,[6],> 500 µM
same,IC50,HepG2 cells,> 1000 µM
same,MIC,[7],> 500 µM
same,MIC,[8],500 µM
same,MIC,[9],7.81 µg/mL
same,selectivity towards bacterial MetAP over human homologue,[10],100 fold
same,MIC,[11],500 µM
same,MIC,[12],> 500 µM
same,MIC,[13],> 500 µM
same,MIC,[14],> 500 µM
same,log k’w,[15],1.857
same,logkw,[15],1.857
same,MIC,[16],> 500 µM
same,MIC,[17],> 500 µM
same,MIC,[18],> 500 µM
same,MIC,[19],500 µM
same,MIC,[20],> 500 µM
O=C(Nc1nc(-c2ccccc2)cs1)c1ccncc1 [Compound 13a],MIC,[1],> 125 µM
same,MIC,[2],> 125 µM
same,MIC,[3],> 125 µM
same,Mtb H37Ra MIC,"[4]; Middlebrook 7H9, resazurin after 120 h",7.81 µg/mL
same,MIC,[4]; [24],3.91 to 7.81 µg/mL
same,MIC,"[4]; recalculated from µg/mL, read-out: MICH37Ra",27.8 µM
same,MIC,[5],≥ 500 µg/mL
same,MIC,[6],> 125 µM
same,IC50,HepG2 cells,> 100 µM
same,SI,HepG2 cells; SI = IC50 (µM) HepG2 / MICH37Ra (µM),>3.6
same,MIC,[21],≥ 500 µg/mL
same,MIC,[7],> 125 µM
same,MIC,[8],> 125 µM
same,MIC,[9],≥ 500 µg/mL
same,MIC,[11],> 125 µM
same,MIC,[12],> 125 µM
same,MIC,[13],> 125 µM
same,MIC,[14],> 125 µM
same,log k’w,[15],2.190
same,logkw,[15],2.19
same,MIC,[16],> 125 µM
same,MIC,[17],> 125 µM
same,MIC,[22]; 96 h,7.81 µg/mL
same,MIC,[18],> 125 µM
same,cytoprotective effect,PC12 cells,moderate cytoprotective effect
same,MIC,[19],> 125 µM
same,MIC,[20],> 125 µM
O=C(Nc1nc(-c2ccccc2)cs1)c1cnccn1 [Compound 17a],MIC CK,[1],insoluble
same,MIC SA,[2],insoluble
same,MIC AB,[3],insoluble
same,MIC,[5],> 250 µg/mL
same,MIC EC,[6],insoluble
same,MIC CT,[7],insoluble
same,MIC TI,[8],insoluble
same,MIC AF,[11],insoluble
same,MIC LC,[12],insoluble
same,MIC PA,[13],insoluble
same,MIC CA,[14],insoluble
same,log k’w,[15],2.365
same,logkw,[15],2.365
same,MIC AFla,[16],insoluble
same,Mtb H37Ra MIC,[23],>50 [11] µg/mL
same,MIC SE,[17],insoluble
same,MIC,[22]; resazurin after 96 h,> 50 µg/mL
same,MIC EF,[18],insoluble
same,MIC CP,[19],insoluble
same,MIC MRSA,[20],insoluble
O=C(Nc1nc(-c2ccccc2)cs1)c1cnc(Cl)cn1 [Compound 18a],MIC CK,[1],insoluble
same,MIC SA,[2],insoluble
same,MIC AB,[3],insoluble
same,MIC,[5],> 500 µg/mL
same,MIC EC,[6],insoluble
same,MIC,[21],> 100 µg/mL
same,MIC CT,[7],insoluble
same,MIC TI,[8],insoluble
same,MIC AF,[11],insoluble
same,MIC LC,[12],insoluble
same,MIC PA,[13],insoluble
same,MIC CA,[14],insoluble
same,log k’w,[15],3.173
same,logkw,[15],3.173
same,MIC AFla,[16],insoluble
same,Mtb H37Ra MIC,[23],>100 [11] µg/mL
same,MIC SE,[17],insoluble
same,MIC,[22]; resazurin after 96 h,> 100 µg/mL
same,MIC EF,[18],insoluble
same,MIC CP,[19],insoluble
same,MIC MRSA,[20],insoluble
